Data reported in patent US7737140B2, “Therapeutic compounds” (Allergan, Inc., priority 2008, dated 2010).

Tested on: lashes and adjacent hairs of the eyelids
Assay: Clinical observation of lashes and adjacent hairs in glaucoma patients treated with bimatoprost in one eye
Type: in vivo
From the text: In the course of treating patients having glaucoma, treatment may only be appropriate in one eye. […] The lash appearance on the lids of the treated eyes would have appeared quite attractive if it represented a bilateral phenomenon. As a result of its asymmetric nature, the long lashes on one side could be construed as disturbing from a cosmetic standpoint. A systemic examination was preformed as a result of the asymmetric phenomenon. It soon became apparent that this altered appearance was not an isolated finding. […] Definite differences could be identified to varying degrees in the lashes and adjacent hairs of all patients who were taking the drug on a unilateral basis for longer than 6 months.
The changes in the lashes were apparent on gross inspection in several patients once attention was focused on the issue. In those with light colored hair and lashes, the differences were only seen easily with the aid of the high magnification and lighting capabilities of the slit lamp biomicroscope. In the course of glaucoma follow-up examination, attention is generally immediately focused on the eye itself. As a result of the high power magnification needed only one eye is seen at a time and the eye is seen at a high enough power that the lashes are not in focus. […]

Structure (SMILES): CCNC(=O)CCC/C=C\C[C@@H]1[C@@H](/C=C/[C@@H](O)CCc2ccccc2)[C@H](O)C[C@@H]1O [bimatoprost]
- hair growth in treated versus control areas (conclusion from multiple parameters of hair appearance in many subjects): stimulated
- lashes in the treated eye compared with the non-treated eye (glaucoma patient treated with bimatoprost in only one eye): longer, thicker, and fuller
